Several values for one entry are separate records, joined by “and”; a condition that tells them apart may be missing. Equal values may be shown once. Activity calls are given as the source filed them. How the calls were made is not given here.
biological target: Neurotensin receptor type 2 (Homo sapiens) (UniProt O95665); test: activation of neurotensin receptor 2 – imaging, image-based, set 2, selectivity assay for NTR1 agonist project, SAR follow-up (AID 602334); details: NTR2-expressing cells, image-based receptor agonism assay
Sequence (O95665 whole entry, looked up): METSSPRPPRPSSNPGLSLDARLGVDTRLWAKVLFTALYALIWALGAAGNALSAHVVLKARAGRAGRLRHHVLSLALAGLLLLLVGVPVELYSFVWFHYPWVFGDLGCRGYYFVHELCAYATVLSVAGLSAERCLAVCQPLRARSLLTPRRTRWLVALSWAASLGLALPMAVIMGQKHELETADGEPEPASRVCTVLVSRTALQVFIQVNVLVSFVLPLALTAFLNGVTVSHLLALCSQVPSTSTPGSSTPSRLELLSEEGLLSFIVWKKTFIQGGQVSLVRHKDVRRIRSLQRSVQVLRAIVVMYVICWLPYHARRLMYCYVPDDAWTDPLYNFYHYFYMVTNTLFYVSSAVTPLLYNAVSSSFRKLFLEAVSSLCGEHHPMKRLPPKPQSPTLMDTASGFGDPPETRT

Q: Which EC50 does the source give for `COc1cccc(OC)c1-c1cc(C(=O)N[C@@H](CC(C)C)C(=O)OC(C)(C)C)nn1-c1ccnc2cc(Cl)ccc12` here?
A: > 80 µM (inactive)

Q: Which EC50 does the source give for `COc1cc2c3nnc(-c4ccc(F)cc4)c-3cn(Cc3ccc(F)cc3)c2cc1OC` here?
A: inactive

Q: How did the EC50 turn out when `Fc1ccc(-c2nnc3c4cc5c(cc4n(Cc4ccccc4)cc2-3)OCO5)cc1` was run?
A: > 80 µM (inactive)

Q: `COc1cc2c3nnc(-c4ccc(F)cc4)c-3cn(Cc3ccccc3)c2cc1OC` was tested. Which EC50 did it give?
A: 9.39 µM and 7.28 µM

Q: For `COc1cc2c3nnc(-c4ccc(F)cc4)c-3cn(Cc3ccccc3C)c2cc1OC`, which EC50 is on record?
A: 6.91 µM

Q: Which EC50 does the source give for `COc1ccc2c(c1)c1nnc(-c3ccc(F)cc3)c-1cn2Cc1ccccc1` here?
A: 17 µM

Q: For `CCOc1ccc(-c2nnc3c4cc(OC)c(OC)cc4n(Cc4ccc(C)cc4)cc2-3)cc1`, which EC50 is on record?
A: > 80 µM (inactive)

Q: `CC(C)C[C@H](NC(=O)c1cn(-c2ccnc3cc(Cl)ccc23)c(-c2c(Cl)cccc2Cl)n1)C(=O)O` was tested. Which EC50 did it give?
A: > 80 µM (inactive)

Q: Which EC50 does the source give for `COc1cc2nc(CCN(C)C)nc(N3CCN(c4ccccc4OC)CC3)c2cc1OC` here?
A: > 80 µM (inactive)

Q: With `COc1ccc2c3nnc(-c4ccc(C)cc4)c-3cn(Cc3ccc(F)cc3)c2c1` as the compound, how does the EC50 read?
A: > 80 µM (inactive)

Q: With `CCOc1ccccc1N1CCN(c2nc(C3CC3)nc3cc(OC)c(OC)cc23)CC1` as the compound, how does the EC50 read?
A: > 80 µM (inactive)

Q: Which EC50 does the source give for `COc1cc2c3nnc(-c4ccccc4)c-3cn(Cc3ccc(F)cc3)c2cc1OC` here?
A: > 80 µM (inactive)

Q: For `CCOc1ccc(-c2nnc3c4cc(OC)c(OC)cc4n(Cc4ccccc4)cc2-3)cc1`, which EC50 is on record?
A: > 80 µM (inactive)

Q: How did the EC50 turn out when `COc1ccc(-c2nnc3c4cc(OC)c(OC)cc4n(Cc4ccccc4)cc2-3)cc1` was run?
A: inactive

Q: How did the EC50 turn out when `COc1cc2nc(C3CCC3)nc(N3CCN(c4ccccc4[N+](=O)[O-])CC3)c2cc1OC` was run?
A: > 80 µM (inactive)

Q: For `COc1cccc(OC)c1-c1nc(C(=O)N[C@H](CC(C)C)C(=O)O)cn1-c1ccnc2cc(Cl)ccc12`, which EC50 is on record?
A: > 80 µM (inactive)

Q: Which EC50 does the source give for `COc1cc2c3nnc(-c4ccc(C)cc4)c-3cn(Cc3ccc(F)cc3)c2cc1OC` here?
A: 9.08 µM

Q: `COc1ccc(N2CCN(c3nc(C4CCC4)nc4cc(OC)c(OC)cc34)CC2)c(OC)c1` was tested. Which EC50 did it give?
A: > 80 µM (inactive)

Q: For `COc1cc2c3nnc(-c4ccc(C)cc4)c-3cn(Cc3ccc(C)cc3)c2cc1OC`, which EC50 is on record?
A: 12.7 µM

Q: Which EC50 does the source give for `COc1ccc(-c2nnc3c4cc(OC)c(OC)cc4n(Cc4ccc(C)cc4)cc2-3)cc1` here?
A: 10.6 µM

Q: `COc1cc2nc(Cc3ccccc3)nc(N3CCN(c4ccccc4OC)CC3)c2cc1OC` was tested. Which EC50 did it give?
A: > 80 µM (inactive)

Q: How did the EC50 turn out when `CCOc1ccc(-c2nnc3c4cc(OC)c(OC)cc4n(Cc4ccc(F)cc4)cc2-3)cc1` was run?
A: > 80 µM (inactive)

Q: `COc1cc2c3nnc(-c4ccc(Cl)cc4)c-3cn(Cc3ccc(F)cc3)c2cc1OC` was tested. Which EC50 did it give?
A: 8.36 µM

Q: `COc1cccc(OC)c1-c1nc(C(=O)N[C@@H](CC(C)C)C(=O)O)cn1-c1cccc2ccccc12` was tested. Which EC50 did it give?
A: > 80 µM (inactive)

Q: With `COc1cc2nc(C3CCCC3)nc(N3CCN(c4ccccc4OC)CC3)c2cc1OC` as the compound, how does the EC50 read?
A: > 80 µM (inactive)

Q: Which EC50 does the source give for `CCc1ccc(-c2nnc3c4cc(OC)c(OC)cc4n(Cc4ccc(F)cc4)cc2-3)cc1` here?
A: inactive

Q: Which EC50 does the source give for `COc1cc2nc(CCN3CCN(c4ccccc4OC)CC3)nc(N3CCN(c4ccccc4OC)CC3)c2cc1OC` here?
A: > 80 µM (inactive)

Q: `Fc1ccc(Cn2cc3c(-c4ccc(F)cc4)nnc-3c3cc4c(cc32)OCO4)cc1` was tested. Which EC50 did it give?
A: inactive

Q: How did the EC50 turn out when `Fc1ccc(Cn2cc3c(-c4ccc(Cl)cc4)nnc-3c3cc4c(cc32)OCO4)cc1` was run?
A: inactive

Q: With `COc1cc2nc(C3CC3)nc(N3CCN(C(=O)OC(C)(C)C)CC3)c2cc1OC` as the compound, how does the EC50 read?
A: > 80 µM (inactive)

Q: How did the EC50 turn out when `COc1cc2nc(C3CC3)nc(N3CCN(C(=O)c4ccccc4OC)CC3)c2cc1OC` was run?
A: > 80 µM (inactive)

Q: Which EC50 does the source give for `Cc1cccc(C)c1-c1nc(C(=O)N[C@@H](CC(C)C)C(=O)O)cn1-c1ccnc2cc(Cl)ccc12` here?
A: > 80 µM (inactive)

Q: How did the EC50 turn out when `CCCc1nc(N2CCN(c3ccccc3OC)CC2)c2cc(OC)c(OC)cc2n1` was run?
A: > 80 µM (inactive)

Q: Which EC50 does the source give for `COc1cc2c3nnc(-c4ccc(F)cc4)c-3cn(Cc3ccccc3N(C)C)c2cc1OC` here?
A: 4.37 µM and 3.73 µM

Q: With `COc1cc2c3nnc(-c4ccc(F)cc4)c-3cn(Cc3ccccc3F)c2cc1OC` as the compound, how does the EC50 read?
A: 3.61 µM

Q: With `COc1ccccc1-c1cc(C(=O)N[C@@H](CC(C)C)C(=O)O)nn1-c1ccnc2cc(Cl)ccc12` as the compound, how does the EC50 read?
A: > 80 µM (inactive)

Q: With `COc1cc2nc(C3CCC3)nc(N3CCN(c4ccccc4)CC3)c2cc1OC` as the compound, how does the EC50 read?
A: > 80 µM (inactive)

Q: `CCc1nc(N2CCN(c3ccccc3OC)CC2)c2cc(OC)c(OC)cc2n1` was tested. Which EC50 did it give?
A: > 80 µM (inactive)

Q: How did the EC50 turn out when `COc1ccc2nc(C3CC3)nc(N3CCN(c4ccccc4OC)CC3)c2c1` was run?
A: > 80 µM (inactive)

Q: How did the EC50 turn out when `COc1cc2nc(C3CC3)nc(N3CCNCC3)c2cc1OC` was run?
A: > 80 µM (inactive)

Q: How did the EC50 turn out when `COc1ccc(Cn2cc3c(-c4ccc(F)cc4)nnc-3c3cc(OC)c(OC)cc32)cc1` was run?
A: 14.7 µM

Q: For `COc1cc2nc(C3CC3)nc(N3CCN(Cc4ccc(C)cc4)CC3)c2cc1OC`, which EC50 is on record?
A: > 80 µM (inactive)

Q: Which EC50 does the source give for `COc1cccc(OC)c1-c1cc(C(=O)N[C@@H](CC(C)C)C(=O)O)nn1-c1ccnc2cc(Cl)ccc12` here?
A: > 80 µM (inactive)

Q: How did the EC50 turn out when `COc1cc2c3nnc(-c4ccc(F)cc4)c-3cn(Cc3cccc(C)c3)c2cc1OC` was run?
A: 10.2 µM and 9.29 µM

Q: `COc1cc2nc(CC(C)C)nc(N3CCN(c4ccccc4OC)CC3)c2cc1OC` was tested. Which EC50 did it give?
A: > 80 µM (inactive)

Q: `COc1cc2c3nnc(-c4ccc(F)cc4)c-3cn(Cc3ccc(Cl)cc3)c2cc1OC` was tested. Which EC50 did it give?
A: 15.8 µM

Q: Which EC50 does the source give for `COc1cc2c3nnc(-c4ccc(F)cc4)c-3cn(Cc3ccc(C)cc3C)c2cc1OC` here?
A: 11 µM

Q: Which EC50 does the source give for `Cc1ccc(-c2nnc3c4cc5c(cc4n(Cc4ccccc4)cc2-3)OCO5)cc1C` here?
A: 1.78 µM

Q: `COc1cc2c3nnc(-c4ccccc4)c-3cn(Cc3ccccc3)c2cc1OC` was tested. Which EC50 did it give?
A: inactive

Q: With `COc1cc2nc(C3CCC3)nc(N3CCN(c4c(C)cccc4C)CC3)c2cc1OC` as the compound, how does the EC50 read?
A: > 80 µM (inactive)

Q: How did the EC50 turn out when `COc1cc2nc(C3CCC3)nc(N3CCN(c4ccccc4C)CC3)c2cc1OC` was run?
A: > 80 µM (inactive)

Q: `COc1ccc2c3nnc(-c4ccc(C)cc4)c-3cn(Cc3ccc(C)cc3)c2c1` was tested. Which EC50 did it give?
A: > 80 µM (inactive)

Q: `COc1cc2c3nnc(-c4ccc(C)c(C)c4)c-3cn(Cc3ccccc3)c2cc1OC` was tested. Which EC50 did it give?
A: > 80 µM (inactive)

Q: How did the EC50 turn out when `COc1cc2c3nnc(-c4ccc(C)c(C)c4)c-3cn(Cc3ccc(F)cc3)c2cc1OC` was run?
A: inactive

Q: With `COc1cc2c3nnc(-c4ccc(F)cc4)c-3cn(Cc3ccncc3)c2cc1OC` as the compound, how does the EC50 read?
A: > 80 µM (inactive)

Q: For `Cc1ccc(Cn2cc3c(-c4ccc(C)c(C)c4)nnc-3c3cc4c(cc32)OCO4)cc1`, which EC50 is on record?
A: inactive

Q: Which EC50 does the source give for `COc1cc2c3nnc(-c4ccc(F)cc4)c-3cn(Cc3ccc(C)cc3)c2cc1OC` here?
A: 15 µM and 15.7 µM

Q: Which EC50 does the source give for `Cc1ccc(Cn2cc3c(-c4ccc(F)cc4)nnc-3c3cc4c(cc32)OCO4)cc1` here?
A: > 80 µM (inactive)

Q: With `COc1cc2nc(C3CC3)nc(N3CCN(C(=O)c4ccccc4)CC3)c2cc1OC` as the compound, how does the EC50 read?
A: > 80 µM (inactive)

Q: Which EC50 does the source give for `COc1cc2nc(C3CCC3)nc(N3CCN(c4ccccc4Cl)CC3)c2cc1OC` here?
A: > 80 µM (inactive)

Q: `COc1cccc(OC)c1-c1nc(C(=O)N[C@@H](CC(C)C)C(=O)O)cn1-c1ccnc2cc(Cl)ccc12` was tested. Which EC50 did it give?
A: > 80 µM (inactive)

Q: With `COc1cc2nc(C3CC3)nc(N3CCN(c4ccccc4Cl)CC3)c2cc1OC` as the compound, how does the EC50 read?
A: > 80 µM (inactive)

Q: Which EC50 does the source give for `COc1cc2nc(C3CCC3)nc(N3CCN(c4ccccc4OC)CC3)c2cc1OC` here?
A: > 80 µM (inactive)

Q: How did the EC50 turn out when `C=Cc1nc(N2CCN(c3ccccc3OC)CC2)c2cc(OC)c(OC)cc2n1` was run?
A: > 80 µM (inactive)

Q: For `COc1ccc2nc(C3CCC3)nc(N3CCN(c4ccccc4OC)CC3)c2c1`, which EC50 is on record?
A: > 80 µM (inactive)

Q: For `COc1cc2nc(CC3CC3)nc(N3CCN(c4ccccc4OC)CC3)c2cc1OC`, which EC50 is on record?
A: > 80 µM (inactive)

Q: `COc1ccc2c(c1)c1nnc(-c3ccc(F)cc3)c-1cn2Cc1ccc(F)cc1` was tested. Which EC50 did it give?
A: inactive

Q: Which EC50 does the source give for `COc1cc2nc(C3CC3)nc(N3CCN(c4ccccc4OC)CC3)c2cc1OC` here?
A: > 80 µM (inactive)

Q: How did the EC50 turn out when `Cc1ccc(-c2nnc3c4cc5c(cc4n(Cc4ccc(F)cc4)cc2-3)OCO5)cc1` was run?
A: inactive

Q: `COc1cc2nc(C3CC3)nc(N3CCN(S(=O)(=O)c4ccccc4)CC3)c2cc1OC` was tested. Which EC50 did it give?
A: > 80 µM (inactive)

Q: For `COc1cc2nc(C(C)C)nc(N3CCN(c4ccccc4OC)CC3)c2cc1OC`, which EC50 is on record?
A: > 80 µM (inactive)

Q: For `COc1ccc2c3nnc(-c4ccc(C)cc4)c-3cn(Cc3ccccc3)c2c1`, which EC50 is on record?
A: inactive

Q: `COc1cccc(OC)c1-c1nc(C(=O)N[C@@H](CC(C)C)C(=O)O)cn1-c1ccnc2ccccc12` was tested. Which EC50 did it give?
A: > 80 µM (inactive)

Q: Which EC50 does the source give for `COc1cc2c3nnc(-c4ccc(Cl)cc4)c-3cn(Cc3ccccc3)c2cc1OC` here?
A: 8.47 µM

Q: Which EC50 does the source give for `COc1cc2nc(C3CCC3)nc(N3CCN(c4ccccc4F)CC3)c2cc1OC` here?
A: > 80 µM (inactive)

Q: `COc1cc2c3nnc(-c4ccc(Cl)cc4)c-3cn(Cc3ccc(C)cc3)c2cc1OC` was tested. Which EC50 did it give?
A: > 80 µM (inactive)

Q: Which EC50 does the source give for `COc1cc2nc(C3CCC3)nc(N3CCN(c4ccccn4)CC3)c2cc1OC` here?
A: > 80 µM (inactive)

Q: With `COc1ccccc1CN1CCN(c2nc(C3CC3)nc3cc(OC)c(OC)cc23)CC1` as the compound, how does the EC50 read?
A: > 80 µM (inactive)
